From patent US20200384072A1, “THERAPY OF IONIZING RADIATION-INDUCED DISORDERS” (SCK-CEN, priority 2019, published 2020) come the findings set out here.

Entries after “also recorded” stand apart in the source; their conditions may differ.

For experiment [1], the system named is RBE4 cells. The experiment in a line: γ-H2AX counts after local 3×3 mm X-ray irradiation (irradiated and bystander zones), RBE4 cells. Type of experiment: cell-based, rat. The conditions noted are these: 1 Gy, 3 h post-irradiation, Cbx 50 μM, Gap26 161 μM, TAT-Gap19 200 μM, Xestospongin C 5 μM. As to the method:
(§1) A defined area of the cell culture dishes were exposed to X-rays (1Gy or 20 Gy) by using a small animal radiation research platform (SARRP, Xstrahl, 220 kV, 13 mA), making use of a 3×3 mm collimator. Whole dish irradiation was done using a 10×10 cm broad-beam collimator, while localized Irradiation was performed with a 3×3 mm collimator. A Gafchromic RTQA2 film, with a sensitivity of 0.02 Gy, was placed underneath the cell dishes in order to delineate the irradiated zone.
(§2) Cells were fixed for 25 min with 4% formaldehyde (VWR) and blocked for 30 min with blocking buffer (5% normal goat serum, 1% bovine serum albumin (BSA), 0.2% Triton X-100 in PBS D+). Overnight incubation with primary antibody (1/500 anti-γ-H2AX in dilution buffer, 1/10 blocking buffer in PBS D+) was followed by a 1 h incubation with 1/400 XX-biotin-goat-anti-mouse antibody in dilution buffer, followed by a 1 h incubation with 1/400 streptavidin-alexa488 in PBS D+. Nuclei were stained with 1 μg/mL DAPI in PBS D+ for 10 min and cells were kept in PBS D+ supplemented with NaN3 at 4° C. All steps except the overnight incubation which was carried out at 4° C., were carried out at room temperature and cell cultures were rinsed thoroughly with PBS D+ between all incubation steps. Imaging was performed with an automated BD Pathway 435 imaging system (10× objective, 10×10 montage resulting in an overall image size of 8.5×6.5 mm). We then quantified the number of γ-H2AX-foci positive nuclei in the directly irradiated and bystander areas and expressed the count as a percentage relative to the number of nuclei and subtracted the percentage of background γ-H2AX signal in non-irradiated paired control cultures for each experiment. For counting γ-H2AX foci, images were thresholded to remove background pixel noise below the foci level. Where applicable, results were normalized against vehicle (bar charts with a 100% vehicle bar without statistical variability or a horizontal line).

In experiment [2] the test system is primary brain microvascular endothelial cells (pBMECs). The experiment can be described thus: γ-H2AX counts after local 3×3 mm X-ray irradiation (irradiated and bystander zones), pBMECs. Type of experiment: cell-based, mouse. The conditions noted are these: 1 Gy, 3 h post-irradiation. As to the method: Cortices, from 10-12 week old mice, were isolated by removing cerebellum, striatum, optic nerves, brain white matter, outer vessels and meninges. After homogenization with a Dounce homogenizer in WBB (Washing Buffer B: HMS, 10 mM Hepes, 0.35 g/L NaHCO3, 0.1% BSA), the homogenate was mixed with 30% dextran in WBB and centrifuged at 3000×g for 25 min at 4° C. The pellet containing the vascular component was then resuspended in WBB and filtered through a 60 μm NY60 Nylon Net Filter (Millipore, Darmstadt, Germany). Following centrifugation at 1000×g for 7 min at room temperature, the pellet was digested in collagenase/dispase supplement with DNase I (Roche Diagnostics, Vilvoorde, Belgium) and TLCK (Tosyl, Lysin chloromethyl ketone, sigma-aldrich) for 33 min at 37° C. in a shaking water bath. The digested capillary suspension was then seeded after multiple washing steps on wells coated with matrigel or glass coated with Corning Cell-Tak (VWR, Leuven, Belgium). For the isolation of intact capillaries the protocol was aborted just before the digestion step.
as §1, §2

Experiment [3] relates to RBE4 cells. The experiment can be described thus: Irradiation-induced ATP release, RBE4 cells. Type of experiment: cell-based, rat. To be noted: broad-beam 1 Gy, 5 min post-irradiation, BAPTA-AM 10 μM, NALC 1 mM, c-PTIO 100 μM. As to the method:
ATP was measured using a luciferin-luciferase assay kit (Sigma-Aldrich) in combination with a luminometer plate reader (Victor3 1420 multi label counter; Perkin Elmer, Zaventem, Belgium).
Extracellular ATP measurements were initially carried out at different time-points post-irradiation, the effect of blockers on ATP release was tested at the 5 min post-irradiation time-point (time of maximum ATP release).

The test system of experiment [4] is RBE4 cells. The experiment in a line: γ-H2AX counts in electroporation-loaded bystander zone, RBE4 cells. Type of experiment: cell-based, rat. The conditions noted are these: BH4-Bcl-2 20 μM, BAPTA 60 μM, SOD 100 μg/mL (3 μM). As to the method:
as §2
Cells were grown to near confluency on 4-well plates coated with collagen. Cell monolayer cultures were washed three times with HBSS-Hepes 25 mM (pH 7.2-7.4) and subsequently three times with a low conductivity electroporation buffer (4.02 mM KH2PO4, 10.8 mM K2HPO4, 1.0 mM MgCl2, 300 mM sorbitol, 2.0 mM Hepes, pH 7.4). They were placed 400 μm underneath a two-wire Pt-Ir electrode on the microscopic stage and electroporated in the presence of a tiny amount of electroporation solution (10 μl) containing 100 μg/mL SOD, 60 μM BAPTA or 20 μM BH4-Bcl2 combined with 100 μM 10 kDa DTR. […]

Experiment [5] relates to RBE4 cells. The experiment in a line: Cytosolic Ca2+ imaging after medium transfer from irradiated to recipient RBE4 cells. Type of experiment: cell-based, rat. The conditions noted are these: for AUC of Ca2+ transients in recipient bystander cells: inhibitor added to the irradiated culture 30 min before irradiation, NALC 1 mM; for [Ca2+]i responses in recipient cells: inhibitor added to the recipient cells, PPADS 50 μM. As to the method:
Cells were seeded on glass coverslips (18 mm 0) coated with 3.5 μg/cm^2 Corning cell-tak (VWR, Leuven, Belgium) and ester loaded for 45 min with 10 μM Fluo-3-AM in HBSS-HEPES supplemented with 1 mM of probenecid and 0.01% of pluronic F127 at room temperature followed by de-esterification over 15 min. Imaging was performed using an inverted fluorescence microscope equipped with a ×40 oil immersion objective and an EM-CCD camera (QuantEM™ 512SC CCD camera, Photometrics, Tucson, Ariz.). For direct Ca^2+ measurements the loaded cells were irradiated and transferred to the microscopy stage. For medium transfer, the loaded cells were superfused for 1 min with HBSS-Hepes (1 mM), followed by 4 min with HBSS-Hepes conditioned by irradiated cultures. Fluorescence intensity changes in the cells were analyzed with custom-developed FluoFrames software (L. Leybaert, Ghent, Belgium). Ca^2+ changes were quantified as the area under the curve (AUC) of the Ca^2+ traces.

For experiment [6], the system named is RBE4 cells. The experiment in a line: Irradiation-induced propidium iodide dye uptake, RBE4 cells. The class given is cell-based, rat. The conditions noted are these: 1 Gy, 5 min post-irradiation. As to the method: Cells were grown to near confluency in 4-well plates. Cultures were incubated with 1 mM propidium iodide (PI) and 200 μM 10 kDa dextran-FITC before focal irradiation and dye uptake was measured 5 min post-irradiation by measuring the fluorescence intensity of both dyes following image acquisition with a BD pathway 435 imaging system.

`CC(=O)OCOC(=O)CN(CC(=O)OCOC(C)=O)c1ccccc1OCCOc1ccccc1N(CC(=O)OCOC(C)=O)CC(=O)OCOC(C)=O` [BAPTA-AM, 1.2-bis-(2-aminophynoxy)-ethane-N,N,N′,N′,tetraacetic acid acetoxy methyl ester]: in the experiment with RBE4 cells [1], the “γ-H2AX counts in the bystander zone (normalized to vehicle)” value is on record as “less clear responses” and the “γ-H2AX counts in the irradiated zone (normalized to vehicle)” value is reported as “less clear responses”. For the same compound, in experiment [2], the “γ-H2AX counts in the bystander zone (normalized to vehicle)” value was “significantly reduced the γ-H2AX scores in both areas; also recorded: almost zero” and the “γ-H2AX counts in the irradiated area (normalized to vehicle)” value is recorded as “significantly reduced the γ-H2AX scores in both areas”. Moreover, in the experiment with RBE4 cells [3], the “irradiation-induced ATP release” value is on record as “inhibited irradiation-induced ATP release; also recorded: significantly decreased ATP release”.

Consider `O=C([O-])CN(CC(=O)[O-])c1ccccc1OCCOc1ccccc1N(CC(=O)[O-])CC(=O)[O-].[K+].[K+].[K+].[K+]` [BAPTA], for which the “γ-H2AX scores in the electroporation-loaded bystander zone (normalized to vehicle)” value in the experiment with RBE4 cells [4] is recorded as “significantly decreased γ-H2AX counts; also recorded: strongly reduced the γ-H2AX scores”.

As for `CC(=O)N[C@@H](CS)C(=O)O` [NALC, N-acetyl-L-cystein], in the experiment on RBE4 cells [1], the “γ-H2AX counts in the bystander zone (normalized to vehicle)” value is “less clear responses” and the “γ-H2AX counts in the irradiated zone (normalized to vehicle)” value is reported as “less clear responses”. The “AUC of Ca2+ transients in recipient bystander cells” value with RBE4 cells [5] is “reduced the area under the curve (AUC)”. Also, in experiment [2], the “γ-H2AX counts in the bystander zone (normalized to vehicle)” value is given as “significantly reduced the γ-H2AX scores in both areas; also recorded: almost zero” and the “γ-H2AX counts in the irradiated area (normalized to vehicle)” value is listed as “significantly reduced the γ-H2AX scores in both areas”. The “irradiation-induced ATP release” value with RBE4 cells [3] is “inhibited irradiation-induced ATP release; also recorded: significantly decreased ATP release”.

With `Cc1nc(N=Nc2ccc(S(=O)(=O)O)cc2S(=O)(=O)O)c(COP(=O)(O)O)c(C=O)c1O` [PPADS, Pyridoxalphosphate-6-azopehyl-2′,4′-disolfonic acid], the “γ-H2AX counts in the bystander zone (normalized to vehicle)” value with RBE4 cells [1] is listed as “significantly reduced γ-H2AX scores”. In addition, the “[Ca2+]i responses in recipient cells” value in the experiment on RBE4 cells [5] is “inhibited the [Ca^2]i responses”.

In the case of `C1CCC[C@H]2CCCN3CC[C@@H](CCCCCC[C@@H]4CCCN5CC[C@@H](CC1)O[C@@H]45)O[C@@H]23` [Xestospongin C], the “γ-H2AX counts in the bystander zone (normalized to vehicle)” value in the experiment on RBE4 cells [1] is given as “significantly reduced γ-H2AX counts in the bystander zone”.

For the compound `CC1(C)N([O])C(c2ccc(C(=O)O)cc2)=[N+]([O-])C1(C)C` [c-PTIO], the figures for the “γ-H2AX counts in the bystander zone (normalized to vehicle)” value (with RBE4 cells [1]; in experiment [2]; in experiment [2] (listed as C-PTIO)) were “less clear responses”, “significantly reduced the γ-H2AX scores in both areas” and “almost zero”, respectively. For the same compound, the “γ-H2AX counts in the irradiated zone (normalized to vehicle)” value with RBE4 cells [1] is recorded as “less clear responses”. Also, the “γ-H2AX counts in the irradiated area (normalized to vehicle)” value in experiment [2] is listed as “significantly reduced the γ-H2AX scores in both areas”. In addition, the “irradiation-induced ATP release” value is “strongly reduced irradiation-induced ATP release” in the experiment on RBE4 cells [3] and “inhibited irradiation-induced ATP release” with RBE4 cells [3] (listed as C-PTIO).

For “BH4-Bcl-2: IP3 receptor blocking peptide (amino acids 6-30 of Bcl-2; MW 3.6 kDa) (RTGYDNREIVMKYIHYKLSQRGYEW; UniProt P10415 6-30, looked up, fragment)”, the “γ-H2AX scores in the electroporation-loaded bystander zone (normalized to vehicle)” value in the experiment with RBE4 cells [4] is given as “strongly reduced the γ-H2AX scores”; in the experiment with RBE4 cells [4] (listed as BH4-Bcl2), “significantly decreased γ-H2AX counts”.

In the case of “Gap26: connexin mimetic peptide, amino acids 64-76 from the first extracellular loop of Cx43 (SEQ ID NO: 1) (VCYDKSFPISHVR; Synthetic peptide_Gap26)”, in the experiment on RBE4 cells [6], the “PI uptake in the bystander area” value is “significantly reduced; also recorded: inhibited” and the “PI uptake in the irradiated area” value is on record as “significantly reduced; also recorded: inhibited”. Also, in the experiment with RBE4 cells [1], the “γ-H2AX counts in the bystander zone (normalized to vehicle)” value is recorded as “significantly inhibited” and the “γ-H2AX counts in the irradiated zone (normalized to vehicle)” value is reported as “significantly inhibited”. Further, in the experiment with RBE4 cells [5], the “AUC of Ca2+ transients in recipient bystander cells” value is reported as “reduced the area under the curve (AUC)” and the “[Ca2+]i responses in recipient cells” value was “inhibited the [Ca^2]i responses”. In addition, the “γ-H2AX counts in the irradiated area (normalized to vehicle)” value in experiment [2] is listed as “only had effect in the bystander zone”. Moreover, the “irradiation-induced ATP release” value with RBE4 cells [3] is given as “inhibited”.
